Where a SMILES comes first, the peptide text is derived from it.
Molecular target: T1, recombinant human E-selectin (Homo sapiens, UniProt P16581)
T1 sequence (P16581 22-556 limits assumed): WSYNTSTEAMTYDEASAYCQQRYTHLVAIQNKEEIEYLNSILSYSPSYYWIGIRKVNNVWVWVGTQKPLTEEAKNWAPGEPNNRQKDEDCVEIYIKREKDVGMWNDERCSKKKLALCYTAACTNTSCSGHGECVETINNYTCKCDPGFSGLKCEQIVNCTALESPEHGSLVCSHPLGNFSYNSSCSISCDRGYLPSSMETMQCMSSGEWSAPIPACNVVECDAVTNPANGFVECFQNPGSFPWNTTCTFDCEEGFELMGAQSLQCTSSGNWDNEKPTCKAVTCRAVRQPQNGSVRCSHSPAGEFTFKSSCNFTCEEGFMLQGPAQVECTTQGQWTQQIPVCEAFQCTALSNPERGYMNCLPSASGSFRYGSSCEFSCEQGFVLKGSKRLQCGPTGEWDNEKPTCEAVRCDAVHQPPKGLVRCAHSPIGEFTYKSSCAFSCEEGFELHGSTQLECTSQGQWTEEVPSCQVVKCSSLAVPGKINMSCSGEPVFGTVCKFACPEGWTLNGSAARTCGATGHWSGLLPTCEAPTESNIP
Assay: Surface plasmon resonance
Assay type: binding
Conditions: SPR, peptide M versus peptide K

koff relative to peptide K (times faster): 10 times
SMILES: CC[C@H](C)[C@H](NC(=O)[C@H](CC(=O)O)NC(=O)[C@H](CO)NC(=O)CNC(=O)[C@@H](N)CS)C(=O)N[C@H](C(=O)N[C@@H](Cc1c[nH]c2ccccc12)C(=O)N[C@@H](CC(=O)O)C(=O)N[C@@H](CCC(N)=O)C(=O)N[C@@H](CC(C)C)C(=O)N[C@@H](Cc1c[nH]c2ccccc12)C(=O)N[C@@H](CC(=O)O)C(=O)N[C@@H](CC(C)C)C(=O)N[C@@H](CCSC)C(=O)O)[C@@H](C)O [Peptide M, CGSDITWDQLWDLM] (H-CGSDITWDQLWDLM-OH)

Reference: paper PMC3366278 (Biomaterials, 2012)
